Experimental data reported in patent US10525139B2, “Folate-conjugated molecules for delivery of toxic small molecule inhibitors to cancer cells and methods of use” (priority 2014, dated 2020).
Entries after “also recorded” stand apart in the source; their conditions may differ.

Experiments:
NOTCH1 [1] = test: NOTCH1 cell surface staining by flow cytometry; type: cell-based, human; conditions: T-ALL cells; for NOTCH1 expression on the cell surface: 24 hours
Excerpt: (§1) We previously described that the SERCA inhibitors thapsigargin and cyclopiazonic acid impair NOTCH1 maturation leading to an accumulation of full-length, unprocessed polypeptides in the endoplasmic reticulum/Golgi subcellular compartment. An immediate consequence of SERCA inhibition is a decrement in NOTCH1 protein display on the surface of T-ALL cells. […] To further support the hypothesis that Thap-OH impairs mutant NOTCH1 maturation, we evaluated levels of full-length, transmembrane and activated NOTCH1 (ICN1) by WB. Lysates from T-ALL cell lines treated with 1 μM Thap-OH were immunoblotted with an antibody specific for the cytoplasmic portion of NOTCH1 that recognizes both unprocessed NOTCH1 (FL-N1) (˜270 kDa) and the furin-processed transmembrane subunit (TM-N1) (˜110 kDa).
(§2) The NOTCH loss was measured via flow cytometry. […] The recapitulation of the thapsigargin effect by JQ-FT is hypothesized to be due to the delivery strategy introduced by folate. […] Here cell growth was assessed using the Promega Cell-Titer Glo ATP-based assay (Promega, Madison, Wis., USA). Luminescence was measured using a Fluostar Omega instrument (BMG-labtech, Ortenberg, Germany).

T-ALL cell lines [2] = test: Uptake of fluorescent folate probes by flow cytometry in T-ALL cells; type: cell-based, human
Excerpt: To assess functional engagement of the folate receptor on T-ALL cells, we generated fluorescence-ragged folic acid probes. FL-TAMRA and FL-FITC, as tool compounds (FIG. 7, panel c). […] Taken together, these observations indicate that functional FR2 expression is increased in T-ALL compared to normal cells, further supporting a rationale for folate-mediated delivery in leukemia.
To explore the mechanism of binding and delivery of folate-conjugates in T-ALL, we performed competition and temperature sensitivity studies of the FL-FITC probe. The T-ALL cell Sine RPMI 8402 was engineered to overexpress either FR1 or FR2 and was then treated with increasing concentrations of FL-FITC. […] We next addressed whether folic acid could compete with the FL-FITC probe for uptake. T-ALL cells were grown in medium depleted of folic acid for 48 hours, treated with FL-FITC (1 or 10 μM), and assessed by flow cytometry. […]
In order to validate the delivery of the Thap-OH, LCMS analysis of the cell lysate and the media was used to detect the presence of both Folate-Thap (FT) and Thap-OH. […] Both Folate-FITC, suitable for flow cytometry studies, and Folate-TMARA, suitable for high-throughput fluorescence plate readers, were evaluated in vitro to determine the delivery mechanism.

SERCA2 = biological target: T1, SERCA2 (Homo sapiens, UniProt P16615); test: Competitive pull-down with Thap-Biotin in T-ALL lysates, immunoblot; type: binding; conditions: ALL/SIL lysates, increasing concentrations of free Thap-OH
T1 construct: Lysates from T-ALL cells (ALL/SIL) were co-treated with the indicated concentrations of biotinylated thapsigargin or Thap-OH; endogenous in cells; host or cells: ALL/SIL T-ALL cells (lysate)
Experimental: (§3) Lysates from T-ALL cells (ALL/SIL) were co-treated with the indicated concentrations of biotinylated thapsigargin or Thap-OH for 6 hours and subjected to streptavidin pulldown for 24 hours. The immunoblot was stained with SERCA2 and SERCA3 antibodies. […] Statistical significance for mutated vs WT (*P≤:0.05, **P≤0.01) was determined by one-way ANOVA with Bonferroni's correction for multiple comparison testing. […] NOTCH1 (N1) was detected with an antibody against the C-terminus of NOTCH1 that recognizes the […] NOTCH1 transmembrane subunit (TM) and the unprocessed NOTCH1 precursor (FL). GAPDH was used as loading control. […] Immunoblot was stained with an antibody against FR2. Vinculin was used as a loading control.
(§4) To test the hypothesis that Thap-OH targets SERCA in T-ALL cells, we first performed a competitive pull-down assay in which protein lysates were treated with a novel biotinylated derivative of thapsigargin (Thap-Biotin), alone or in the presence of increasing concentrations of free, competitive Thap-OH.

SERCA3 = biological target: T2, SERCA3 (Homo sapiens, UniProt Q93084); test: as above; type: binding; conditions: ALL/SIL lysates, increasing concentrations of free Thap-OH
T2 construct: Lysates from T-ALL cells (ALL/SIL) were co-treated with the indicated concentrations of biotinylated thapsigargin or Thap-OH; endogenous in cells; host or cells: ALL/SIL T-ALL cells (lysate)
Experimental: as §3, §4

NOTCH1 [3] = test: NOTCH1 processing and activation by western blot (FL-N1, TM-N1, ICN1); type: cell-based, human
Excerpt: as §1
Both Folate-Thap (JQ-FT) and Thap-OH were tested in T-ALL cell lines with 24 h treatment. […] Lysates were prepared after treatment with indicated doses of thapsigargin, JQ-FT or Thap-OH for 24 hr. The blot shown was stained with an antibody against the C-terminus of NOTCH1 that recognizes both the furin-processed NOTCH1 transmembrane subunit (TM) and the unprocessed NOTCH1 precursor (FL) (FIG. 2A). GAPDH was used as a loading control. Western blots were stained with antibodies specific for γ-secretase-cleaved NOTCH 1 ([…], Cell Signaling, Beverly, Mass., USA), or the C-terminus of NOTCH1 (SC-6014 (C-20) Santa Cruz Biotechnology, Santa Cruz, Calif., USA). Control stains were carried out with antibodies specific for GAPDH (137179, Santa Cruz Biotechnology). Blots were developed with anti-rabbit-HRP (NA9340V, Amersham, Pittsburgh, Pa., USA) or anti-mouse-HRP (NA9340V or NA9310V, Amersham). Staining was quantified using ImageQuant TI V 7.0 (GE Health Care, Piscataway, N.J., USA).

T-ALL cell lines [4] = test: T-ALL cell viability / growth (ATP content, Cell-Titer Glo); type: cell-based, human; conditions: 72 hours
Experimental: Thus, cell lines carrying NOTCH1 alleles with HD domain, mutations were more sensitive to Thap-OH than cells with WT NOTCH1 alleles.
As a further test of the idea that JQ-FT acts by preventing NOTCH1 activation in a manner similar to thapsigargin, the NOTCH1-dependent T-ALL cell lines RPMI-8402 were transduced with empty MigRI vector or with ICN1, which lies downstream of the γ-secretase cleavage step in Notch activation. Viral supernatant production and retroviral infections were performed as described for MigRI retroviral vectors (Aster, J. C., et al. “Essential roles for ankyrin repeat and transactivation domains in induction of T-cell leukemia by NOTCH1.” Mol. Cell. Biol. 2000; 20:7505-7515). Transduction efficiency for MigRI was monitored by assessing GFP expression with a FACScan flow cytometer (BD, Franklin Lakes, N.J., USA) (Aster et al., Mol. Cell. Biol. 2000; 20:7505-7515). After viral infection, GFP-positive cells were sorted by flow cytometry with a FACSAria II (BD, Franklin Lakes, N.J., USA). […] Therefore, JQ-FT can recapitulate the Thapsigargin effect with the delivery mechanism of folate.
as §2
The effects of JQ-FT in a panel of T-ALL cell lines that contain activating mutations in the HD domain of NOTCH1 and/or protein stabilizing deletions within the PEST degradation domain.

FR2 = FR2 expression by western blot after Thap-OH; type: cell-based, human; conditions: T-ALL cell lines, increasing concentrations of Thap-OH, 24 hours
Experimental: Thapsigargin is a known inducer of the unfolded protein response (UPR). As such, its derivatives may trigger a cellular response that affects the stable expression or trafficking of folate receptors. To exclude that FR2 is a target of UPR, we treated T-ALL cell lines with increasing concentrations of Thap-OH for 24 hours.

[5] = LCMS analysis of cell lysate and media; type: in vitro ADME; conditions: only after cells were treated with FT
Experimental: In order to validate the delivery of the Thap-OH, LCMS analysis of the cell lysate and the media was used to detect the presence of both Folate-Thap (FT) and Thap-OH. […] To directly visualize the folate delivery of a small molecule, folic acid derivatives with appended fluorophores were designed. Both Folate-FITC, suitable for flow cytometry studies, and Folate-TMARA, suitable for high-throughput fluorescence plate readers, were evaluated in vitro to determine the delivery mechanism.

T1 sequence (P16615 whole entry): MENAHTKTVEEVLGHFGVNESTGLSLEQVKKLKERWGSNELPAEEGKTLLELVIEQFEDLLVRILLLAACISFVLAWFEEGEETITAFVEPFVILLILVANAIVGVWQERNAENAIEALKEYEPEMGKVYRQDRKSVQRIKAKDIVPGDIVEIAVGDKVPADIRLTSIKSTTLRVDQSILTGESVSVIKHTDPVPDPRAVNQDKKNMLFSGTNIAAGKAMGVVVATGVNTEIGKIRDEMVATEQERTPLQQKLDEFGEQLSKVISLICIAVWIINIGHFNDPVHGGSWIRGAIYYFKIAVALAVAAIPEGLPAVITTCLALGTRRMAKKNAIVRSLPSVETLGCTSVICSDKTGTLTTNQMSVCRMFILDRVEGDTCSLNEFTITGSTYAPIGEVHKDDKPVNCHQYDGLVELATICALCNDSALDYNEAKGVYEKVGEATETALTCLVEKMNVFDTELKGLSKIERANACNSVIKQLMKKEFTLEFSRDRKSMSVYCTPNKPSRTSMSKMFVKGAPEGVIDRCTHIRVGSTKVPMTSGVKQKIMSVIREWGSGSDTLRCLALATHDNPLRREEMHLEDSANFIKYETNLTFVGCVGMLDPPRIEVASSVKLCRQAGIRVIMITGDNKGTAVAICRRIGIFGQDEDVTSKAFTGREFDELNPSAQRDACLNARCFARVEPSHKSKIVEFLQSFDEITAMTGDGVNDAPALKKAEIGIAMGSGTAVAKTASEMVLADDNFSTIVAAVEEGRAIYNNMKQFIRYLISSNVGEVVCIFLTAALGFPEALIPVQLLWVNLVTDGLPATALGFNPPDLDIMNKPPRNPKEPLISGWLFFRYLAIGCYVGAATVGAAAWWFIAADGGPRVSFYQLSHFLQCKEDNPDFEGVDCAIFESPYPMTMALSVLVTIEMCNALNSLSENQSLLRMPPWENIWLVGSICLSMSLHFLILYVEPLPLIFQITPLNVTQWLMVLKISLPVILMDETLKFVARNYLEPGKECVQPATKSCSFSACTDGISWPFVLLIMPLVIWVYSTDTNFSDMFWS
T2 sequence (Q93084 whole entry): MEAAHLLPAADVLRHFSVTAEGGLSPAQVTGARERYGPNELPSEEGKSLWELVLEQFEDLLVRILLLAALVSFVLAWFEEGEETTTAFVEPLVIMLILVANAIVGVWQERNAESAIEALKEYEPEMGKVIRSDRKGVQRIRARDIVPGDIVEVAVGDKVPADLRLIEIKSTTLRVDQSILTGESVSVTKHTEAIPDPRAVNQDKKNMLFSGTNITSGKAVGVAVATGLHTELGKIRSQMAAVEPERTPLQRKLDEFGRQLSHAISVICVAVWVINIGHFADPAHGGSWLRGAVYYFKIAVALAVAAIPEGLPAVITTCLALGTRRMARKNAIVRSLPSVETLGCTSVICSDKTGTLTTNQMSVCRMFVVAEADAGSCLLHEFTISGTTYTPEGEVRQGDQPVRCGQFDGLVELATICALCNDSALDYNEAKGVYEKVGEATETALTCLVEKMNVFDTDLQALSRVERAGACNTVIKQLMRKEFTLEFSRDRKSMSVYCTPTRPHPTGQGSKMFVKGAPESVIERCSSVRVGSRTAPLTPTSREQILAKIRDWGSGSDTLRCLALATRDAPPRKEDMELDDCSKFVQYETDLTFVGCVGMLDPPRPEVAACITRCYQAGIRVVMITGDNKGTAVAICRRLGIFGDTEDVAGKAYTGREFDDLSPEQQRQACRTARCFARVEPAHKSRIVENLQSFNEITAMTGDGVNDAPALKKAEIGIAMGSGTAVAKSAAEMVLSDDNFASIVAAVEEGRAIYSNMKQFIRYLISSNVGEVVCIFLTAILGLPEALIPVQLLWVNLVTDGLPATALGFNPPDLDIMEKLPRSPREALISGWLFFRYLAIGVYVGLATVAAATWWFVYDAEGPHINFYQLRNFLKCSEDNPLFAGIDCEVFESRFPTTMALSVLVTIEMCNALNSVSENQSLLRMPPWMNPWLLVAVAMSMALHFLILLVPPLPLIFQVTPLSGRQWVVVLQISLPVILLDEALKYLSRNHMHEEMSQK

## C/C=C(/C)C(=O)O[C@H]1C(C)=C2[C@H]([C@@H]1OC(=O)CCCCCCC)[C@@](C)(OC(C)=O)C[C@H](OC(=O)CCC)[C@@]1(O)[C@H]2OC(=O)[C@@]1(C)O [thapsigargin, Thapsigargin, reference compound]
NOTCH1 [1]
  NOTCH1 expression on the cell surface: concentration-dependent reduction in NOTCH1 expression on the cell surface

## CCCCC[C@@H](O)[C@H]1C(=O)O[C@H](C)[C@@H](O)/C=C/C=C/C=C/C=C/C=C(\C)[C@@H](O)C[C@H](O)C[C@H](O)C[C@H](O)C[C@H](O)C[C@H](O)C[C@@H]1O [filipin]
T-ALL cell lines [2]; four T-ALL cell lines pretreated with 10 μM filipin, 10 μM FL-FITC
  mean percentage reduction of FITC fluorescence signal: 38.9±2.5 percentage

## Nc1nc2ncc(CNc3ccc(C(=O)N[C@@H](CCC(=O)O)C(=O)O)cc3)nc2c(=O)[nH]1 [folic acid]
T-ALL cell lines [2]; free folic acid added to T-ALL culture
  competition of free folic acid with folate derivatives for uptake: competed away the folate derivatives; also recorded: competes with folate-FITC

## C/C=C(/C)C(=O)O[C@H]1C(C)=C2[C@H]([C@@H]1OC(=O)CCCCCCC)[C@@](C)(OC(C)=O)C[C@H](O)[C@@]1(O)[C@H]2OC(=O)[C@@]1(C)O [Thap-OH, 8-O-debutanoylthapsigargin]
SERCA2
  competition with biotinylated thapsigargin for SERCA2: competed off biotinylated thapsigargin
SERCA3
  competition with biotinylated thapsigargin for SERCA3: competed off biotinylated thapsigargin
NOTCH1 [1]
  effect on cell surface NOTCH1 compared with thapsigargin: less potent than the natural product; also recorded: reduced effect
  NOTCH1 expression on the cell surface: concentration-dependent reduction in NOTCH1 expression on the cell surface; also recorded: show NOTCH loss
NOTCH1 [3]; T-ALL cell lines with HD mutations, 24 h, Thap-OH at 1 μM
  furin-processed transmembrane NOTCH1 subunit (TM-N1) level: reduced the levels of the furin-processed transmembrane NOTCH1 subunit
NOTCH1 [3]; T-ALL cell lines, 24 h
  ICN1 level: decreased ICN1 levels
  unprocessed full-length NOTCH1 (FL-N1) level: not the unprocessed full-length NOTCH1 precursor
NOTCH1 [3]; T-ALL cell lines, 24 h treatment
  activity on NOTCH1 processing relative to JQ-FT: much lower activity
NOTCH1 [3]; WT cell lines (Loucy, MOLT16), concentrations tested
  NOTCH1 maturation in NOTCH1 WT cell lines: no effect on NOTCH1 maturation in the WT cell lines
T-ALL cell lines [4]; Thap-OH, dose-ranging ATP content assays
  T-ALL cell viability: decrease in T-ALL cell viability
T-ALL cell lines [4]; mutated (ALL/SIL, DND41, PF382, RPMI 8402) vs WT (Loucy, MOLT16, SUPT11)
  sensitivity of NOTCH1 mutant versus WT T-ALL cells: mutant T-ALL cells were more sensitive to the effects of Thap-OH than NOTCH1 WT cells
FR2
  FR2 expression: No change in FR2 expression
[5]
  detection of released Thap-OH in cell lysate: detected in cell lysate
